Assay results: patent EP0252983B1, “SALTS OF N-(VINYLOXIETHYL)DITHIOCARBAMIC ACID, METHOD OF OBTAINING THEREOF AND […] ON THEM” (priority 1985, dated 1987)
Like-named read-outs stand apart in the source and are kept apart here.

Columns and labels:
Acremonium charticola [1] = experiment: Mycelial growth inhibition on agar (contact activity); type: cell-based; conditions: Würzeagar
Method: (§1) Die Prüfungen werden nach dem Verfahren zur Ermittlung der Kontaktaktivität durchgeführt. Man verwendet das in Wasser gelöste Kalium-N-(vinyloxyäthyl)dithiocarbamat, führt es in ein Nährmedium ein und vergießt auf Petri-Schalen. Nach 24 Stunden wird mit Pilzmyzelium nach einem Stichverfahren geimpft. Dann temperiert man die Schalen innerhalb von 5 Tagen bei einer zwischen 24 und 26 °C liegenden Temperatur und mißt den Durchmesser von Pilzkolonien, ermittelt den Prozentsatz der Hemmung des Myzelwachstums (S) ausgehend von Angaben am 5. Tag nach der Abbott-Formel [drawing 13] worin dc für den Durchmesser der Pilzkolonien, de für den Durchmesser von Pilzkolonien in der Schale stehen, wo ein die zu prüfenden Stoffe enthaltendes Medium vorhanden ist. Dieses Verfahren zur Ermittlung der mikrobiologischen Aktivität ist in anderen Beispielen verwendet.
(§2) Die Pilzkulturen werden auf Würzeagar gezüchtet. Ergebnisse, erhalten bei der Prüfung der fungiziden Aktivität gegen reine Kulturen von Mikroorganismen, welche Bioschädigungen hervorrufen, sind in der Tabelle 1 dargestellt.

Acremonium cowum [2] = experiment: as above; type: cell-based; conditions: Würzeagar
Method: as §1, §2

[3] = tested on: Cladosporium cladosporioides; experiment: as above; type: cell-based; conditions: Würzeagar
Method: as §1, §2

Cladosporium resinae [4] = experiment: as above; type: cell-based; conditions: Würzeagar
Method: as §1, §2

Geotrichum candidum Link = experiment: as above; type: cell-based
Method: as §1, §2

Oidium Sp. = experiment: as above; type: cell-based; conditions: Würzeagar
Method: as §1, §2

Penicillium charlesii = experiment: as above; type: cell-based
Method: as §1, §2

Penicillium chrysogenum = experiment: as above; type: cell-based
Method: as §1, §2

Walrotiela subiculesa = experiment: as above; type: cell-based
Method: as §1, §2

Fusarium moniliforme = experiment: as above; type: cell-based; conditions: concentration not given
Method: as §1
(§3) Tabelle 2 zeigt die Angaben für die fungizide Aktivität von Kalium-N-(vinyloxyäthyl)dithiocarbamat und bekannten wirksamen Fungiziden Poly arbazin und TMTD. Der zu prüfende Stoff wurde im Laufe der Versuche in Wasser aufgelöst, und die Kulturen wurden auf einem Kartoffel-Glukose-Nährmedium gezüchtet.

Fusarium sambucinum = experiment: as above; type: cell-based; conditions: concentration not given
Method: as §1, §3

Aspergillus niger = experiment: as above; type: cell-based; conditions: concentration not given
Rhizoctonia solani = experiment: as above; type: cell-based; conditions: concentration not given
Method: as §1
Die fungizide Aktivität von Zink-bis-(N-vinyloxyäthyldithiocarbamat) gegen reine Kulturen von Pilzen Fusarium moniliforme, Fusarium sambucinum, Aspergillus niger, Rhizoctonia solani, Cladosporium resinae, Cladosporium cladosporioides, Acremonium cowum, Acremonium charticola, Penicillium chrysogenum, Penicillium charlesii Smith, Penicillium funiculosum, Geotrichum candidum Link, Walrotiela subiculesa, Oidium sp., Paecilomyces varioti, Stereum hirsutum wird gemäß Beispiel 8 untersucht.
(§4) Als Nährmedium dient Würzeagar.

Sphaeropsis malorum = experiment: as above; type: cell-based; conditions: concentration not given
Method: as §1, §4

Xantomonas malvacearum = experiment: Bacterial growth inhibition; type: cell-based; conditions: concentration not given
Psoroptes cuniculi = experiment: Acaricidal activity on isolated mites; type: in vivo
Method: Die akarizide Aktivität der Stoffe wird an isolierten Milben Psoroptes cuniculi als Erreger der Psoroptesräude bei Kaninchen geprüft. Von frischen Verkrustungen von Kaninchen mit Psoroptesräude, werden zu diesem Zweck 50 Milbenexemplare (Larven, Nymphen, Imago) gewählt und in Petri-Schalen auf ein Filterpapierblatt übertragen. Dann bringt man auf Milben und die ganze Blattoberfläche 1,5 ml zu prüfende wäßrige Stofflösung in destilliertem Wasser auf. Die Schale wird mit Deckel verschlossen und in einen Thermostat bei 30 °C und Feuchtegehalt von 90 % angeordnet. Der Wirkstoff wird als wäßrige Lösung mit einer zwischen 0,0039 und 4 % liegenden Konzentration genommen. Als Vergleichsmuster dient gleichzeitig eine wäßrige Lösung von Chlorophos. Milben werden im Kontrollversuch (Kontrolle auf Lebensfähigkeit)mit 1,5 ml physiologischer Lösung behandelt und in einen anderen Thermostat unter gleichen Temperatur- und Feuchtigkeitsbedingungen aufgestellt.
Nach 1, 2, 4, 6 Stunden und alle 24 Stunden betrachtet man die Milben im Mikroskop und zählt die toten Milben. Aufgrund der Milbenvernichtung durch einen 24-stündigen Kontakt mit dem Wirkstoff ermittelt man die LK-50 Werte. Die Versuche werden 5mal wiederholt. Arithmetische Mittelwerte gibt Tabelle 14 an.

[5] = Acute toxicity (LD50) in mice; type: in vivo, weißen Mäusen; conditions: intraabdominale Applikation an weißen Mäusen
[6] = Solubility in water (descriptive); type: physicochemical
[7] = Storage stability (descriptive); type: physicochemical
Bacillus = experiment: Bactericidal activity on agar (concentration of complete growth inhibition); type: cell-based; conditions: % bezogen auf den Wirkstoff; am 5. Tag
Method: (§5) Geprüft wird die bakterizide Aktivität von Kalium-, Natrium-, Zink- und Kupfersalzen der N-(Vinyloxyäthyl)dithiocarbamidsäure gegen Bakterien der Gattungen Bacillus, Micrococcus, Pseudomonas, Escherichia und Xantomonas.
(§6) Man stellt wäßrige Stofflösungen verschiedener Konzentration her, die so berechnet werden, daß die Stoffkonzentration in der Petri-Schale bei der Gabe von 1 ml Lösung in das geschmolzene Nährmedium (45 bis 50 °C) zwischen 0,003 und 25 % (bezogen auf den Wirkstoff) schwankt. Nach 18 bis 24 Stunden bringt man auf die Oberfläche des Nährmediums 0,1 ml wäßrige Suspension eintägiger reiner Kulturen von Bakterien auf und verteilt sie gleichmäßig. In Kontrollschalen verteilt sich 0,1 ml Wasser über die Oberfläche des Nährmediums. Die Inkubation erfolgt bei 37 °C innerhalb von 5 Tagen. Die Wirksamkeit der Stoffe wird nach dem Auftreten des Bakterienwachstums auf der Oberfläche des Nährmediums eingeschätzt. Die Prüfergebnisse sind in der Tabelle 13 dargestellt.

Escherichia = experiment: as above; type: cell-based; conditions: % bezogen auf den Wirkstoff; am 5. Tag
Method: as §5, §6

Micrococcus = experiment: as above; type: cell-based; conditions: % bezogen auf den Wirkstoff; am 5. Tag
Method: as §5, §6

Pseudomonas = experiment: as above; type: cell-based; conditions: % bezogen auf den Wirkstoff; am 5. Tag
Method: as §5, §6

Xantomonas = experiment: as above; type: cell-based; conditions: % bezogen auf den Wirkstoff; am 5. Tag
Method: as §5, §6

[8] = tested on: gewöhnlichen Mehlkäfern und Schwarmspinnerraupen; experiment: Antifeedant activity; type: in vivo; conditions: Vergleichsmuster Brestan
Excerpt: Die Prüfung der antiphydanten Aktivität wurde an gewöhnlichen Mehlkäfern und Schwarmspinnerraupen durchgeführt.

Cladosporium resinae [9] = experiment: Mycelial growth inhibition on agar (contact activity); type: cell-based; conditions: Tabelle 12
[10] = tested on: Cladosporium cladosporioides; experiment: as above; type: cell-based; conditions: Tabelle 12
Acremonium cowum [11] = experiment: as above; type: cell-based; conditions: Tabelle 12
Acremonium charticola [12] = experiment: as above; type: cell-based; conditions: Tabelle 12
[13] = Präparatkonzentration 0,0015 %, Würzeagar
[14] = Präparatkonzentration 0,003 %, Würzeagar
[15] = Präparatkonzentration 0,006 %, Würzeagar
[16] = Präparatkonzentration 0,012 %, Würzeagar
[17] = Konzentration des Praparats 0,1 %, Tabelle 12
[18] = Konzentration des Praparats 0,2 %, Tabelle 12
[19] = Konzentration des Praparats 0,4 %, Tabelle 12
[20] = Konzentration des Praparats 0,05 %, Tabelle 12
[21] = Konzentration des Praparats 0,8 %, Tabelle 12
[22] = Konzentration des Praparats 0,1 %
[23] = Konzentration des Praparats 0,2 %
[24] = Konzentration des Praparats 0,4 %
[25] = Konzentration des Praparats 0,05 %
[26] = Konzentration des Praparats 0,8 %

C=COCCNC(=S)S [Natrium-N-(vinyloxyäthyl)dithiocarbamat]
Myzelhemmung in % (Acremonium charticola [1]; Präparatkonzentration 0,0015 %): 100%
Myzelhemmung in % (Acremonium charticola [1]; Präparatkonzentration 0,003 %): 100%
Myzelhemmung in % (Acremonium charticola [1]; Präparatkonzentration 0,006 %): 100%
Myzelhemmung in % (Acremonium charticola [1]; Präparatkonzentration 0,012 %): 100%
Myzelhemmung in % (Acremonium cowum [2]; Präparatkonzentration 0,0015 %): 100%
Myzelhemmung in % (Acremonium cowum [2]; Präparatkonzentration 0,003 %): 100%
Myzelhemmung in % (Acremonium cowum [2]; Präparatkonzentration 0,006 %): 100%
Myzelhemmung in % (Acremonium cowum [2]; Präparatkonzentration 0,012 %): 100%
Myzelhemmung in % ([3]; Präparatkonzentration 0,0015 %): 100%
Myzelhemmung in % ([3]; Präparatkonzentration 0,003 %): 100%
Myzelhemmung in % ([3]; Präparatkonzentration 0,006 %): 100%
Myzelhemmung in % ([3]; Präparatkonzentration 0,012 %): 100%
Myzelhemmung in % (Cladosporium resinae [4]; Präparatkonzentration 0,0015 %): 90%
Myzelhemmung in % (Cladosporium resinae [4]; Präparatkonzentration 0,003 %): 100%
Myzelhemmung in % (Cladosporium resinae [4]; Präparatkonzentration 0,006 %): 100%
Myzelhemmung in % (Cladosporium resinae [4]; Präparatkonzentration 0,012 %): 100%
Myzelhemmung in % (Geotrichum candidum Link; [13]): 5%
Myzelhemmung in % (Geotrichum candidum Link; [14]): 40%
Myzelhemmung in % (Geotrichum candidum Link; [15]): 75%
Myzelhemmung in % (Geotrichum candidum Link; [16]): 100%
Myzelhemmung in % (Oidium Sp.; Präparatkonzentration 0,0015 %): 60%
Myzelhemmung in % (Oidium Sp.; Präparatkonzentration 0,003 %): 100%
Myzelhemmung in % (Oidium Sp.; Präparatkonzentration 0,006 %): 100%
Myzelhemmung in % (Oidium Sp.; Präparatkonzentration 0,012 %): 100%
Myzelhemmung in % (Penicillium charlesii; [13]): 25%
Myzelhemmung in % (Penicillium charlesii; [14]): 40%
Myzelhemmung in % (Penicillium charlesii; [15]): 90%
Myzelhemmung in % (Penicillium charlesii; [16]): 100%
Myzelhemmung in % (Penicillium chrysogenum; [13]): 5%
Myzelhemmung in % (Penicillium chrysogenum; [14]): 20%
Myzelhemmung in % (Penicillium chrysogenum; [15]): 80%
Myzelhemmung in % (Penicillium chrysogenum; [16]): 100%
Myzelhemmung in % (Walrotiela subiculesa; [13]): 100%
Myzelhemmung in % (Walrotiela subiculesa; [14]): 100%
Myzelhemmung in % (Walrotiela subiculesa; [15]): 100%
Myzelhemmung in % (Walrotiela subiculesa; [16]): 100%
unterdrückt das Wachstum des Myzeliums der Pilze (Fusarium moniliforme): 100%
unterdrückt das Wachstum des Myzeliums der Pilze (Fusarium sambucinum): 100%
unterdrückt das Wachstum des Myzeliums der Pilze (Aspergillus niger): 100%
unterdrückt das Wachstum des Myzeliums der Pilze (Rhizoctonia solani): 100%
unterdrückt das Wachstum des Myzeliums der Pilze (Sphaeropsis malorum): 100%
unterdrückt das Wachstum von Bakterien (Xantomonas malvacearum): 33%
LK-50 % (Psoroptes cuniculi; 24-stündiger Kontakt mit dem Wirkstoff): 0,0022%
Vernichtung von 100 % der Milben nach Stunden (Psoroptes cuniculi; Konzentration 0,0039 %): 48 Stunden
Vernichtung von 100 % der Milben nach Stunden (Psoroptes cuniculi; Konzentration 0,0078 %): 24 Stunden
Vernichtung von 100 % der Milben nach Stunden (Psoroptes cuniculi; Konzentration 0,0625 bis 0,125 %): 6 Stunden
Vernichtung von 100 % der Milben nach Stunden (Psoroptes cuniculi; Konzentration 0,125 bis 0,5 %): 4 Stunden
selektive Toxizität gegen Räudemilben, dem Chlorophos überlegen (Psoroptes cuniculi; gegenüber Chlorophos): ~400 mal
LD50 ([5]; mouse, in vivo, ip, read-out: LD50): 260 mg/kg
Löslichkeit in Wasser [6]: gut
Lagerbeständigkeit [7]: lagerbeständig

Kupfer-N-(vinyloxyäthyl)dithiocarbamat
Myzelhemmung in % (Geotrichum candidum Link; [17]): 100%
Myzelhemmung in % (Geotrichum candidum Link; [18]): 100%
Myzelhemmung in % (Geotrichum candidum Link; [19]): 100%
Myzelhemmung in % (Geotrichum candidum Link; [20]): 30%
Myzelhemmung in % (Geotrichum candidum Link; [21]): 100%
Myzelhemmung in % (Penicillium charlesii; [17]): 26%
Myzelhemmung in % (Penicillium charlesii; [18]): 37%
Myzelhemmung in % (Penicillium charlesii; [19]): 92%
Myzelhemmung in % (Penicillium charlesii; [20]): 24%
Myzelhemmung in % (Penicillium charlesii; [21]): 100%
Myzelhemmung in % (Penicillium chrysogenum; [17]): 4%
Myzelhemmung in % (Penicillium chrysogenum; [18]): 40%
Myzelhemmung in % (Penicillium chrysogenum; [19]): 85%
Myzelhemmung in % (Penicillium chrysogenum; [20]): 4%
Myzelhemmung in % (Penicillium chrysogenum; [21]): 100%
Myzelhemmung in % (Walrotiela subiculesa; [17]): 50%
Myzelhemmung in % (Walrotiela subiculesa; [18]): 45%
Myzelhemmung in % (Walrotiela subiculesa; [19]): 100%
Myzelhemmung in % (Walrotiela subiculesa; [20]): 0%
Myzelhemmung in % (Walrotiela subiculesa; [21]): 100%
Konzentrationen, welche das Bakterienwachstum völlig (100 %) hemmen (Bacillus): 0,25%
Konzentrationen, welche das Bakterienwachstum völlig (100 %) hemmen (Escherichia): 0,25%
Konzentrationen, welche das Bakterienwachstum völlig (100 %) hemmen (Micrococcus): 0,25%
Konzentrationen, welche das Bakterienwachstum völlig (100 %) hemmen (Pseudomonas): 0,25%
Konzentrationen, welche das Bakterienwachstum völlig (100 %) hemmen (Xantomonas): 0,25%
LD50 [5]: 267 mg/kg
antiphydante Aktivität [8]: auf gleicher Höhe mit Brestan
Löslichkeit in Wasser [6]: unlöslich
Lagerbeständigkeit [7]: lagerbeständig
Myzelhemmung in % (Cladosporium resinae [9]; [22]): 43%
Myzelhemmung in % (Cladosporium resinae [9]; [23]): 75%
Myzelhemmung in % (Cladosporium resinae [9]; [24]): 100%
Myzelhemmung in % (Cladosporium resinae [9]; [25]): 34%
Myzelhemmung in % (Cladosporium resinae [9]; [26]): 100%
Myzelhemmung in % [10, 22]: 100%
Myzelhemmung in % [10, 23]: 100%
Myzelhemmung in % [10, 24]: 100%
Myzelhemmung in % [10, 25]: 45%
Myzelhemmung in % [10, 26]: 100%
Myzelhemmung in % (Acremonium cowum [11]; [22]): 100%
Myzelhemmung in % (Acremonium cowum [11]; [23]): 100%
Myzelhemmung in % (Acremonium cowum [11]; [24]): 100%
Myzelhemmung in % (Acremonium cowum [11]; [25]): 50%
Myzelhemmung in % (Acremonium cowum [11]; [26]): 100%
Myzelhemmung in % (Acremonium charticola [12]; [22]): 50%
Myzelhemmung in % (Acremonium charticola [12]; [23]): 100%
Myzelhemmung in % (Acremonium charticola [12]; [24]): 100%
Myzelhemmung in % (Acremonium charticola [12]; [25]): 43%
Myzelhemmung in % (Acremonium charticola [12]; [26]): 100%
